Measurements reported in ChEMBL document CHEMBL1201862, “PubChem BioAssay data set” (2004).
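Values below derive from 48-hour exposures of cells grown in 96-well plates, with endpoints linearly interpolated between the two concentrations bracketing the appropriate inhibition level. GI50 is the concentration that inhibits growth by half.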 The source made the active and inactive calls. Cut-off read from the data, not from the text of the source: active = GI50 up to about 1.1 µM and inactive = higher.

Key:
Experiment in all cases: NCI anticancer screen, dose series, 48 h
UACC-257 = system: UACC-257
HCT-116 = system: HCT-116
U-251 = system: U-251
SK-MEL-5 = system: SK-MEL-5
HCT-15 = system: HCT-15
HT-29 = system: HT-29
UO-31 = system: UO-31
A498 = system: A498
MOLT-4 = system: MOLT-4
SK-MEL-2 = system: SK-MEL-2
EKVX = system: EKVX
NCI-H23 = system: NCI-H23
UACC-62 = system: UACC-62
LOX IMVI = system: LOX IMVI
KM12 = system: KM12
SF-268 = system: SF-268
HL-60 = system: HL-60
NCI-H460 = system: NCI-H460
HOP-62 = system: HOP-62
K562 = system: K562

Question: What does the source list for `COC(=O)C(Cc1ccc2c(c1)OCO2)(NC(=O)c1ccccc1)P(=O)(OC)OC` (stereo not drawn)?
Answer: GI50 (UACC-257): > 100 µM (inactive); GI50 (HCT-116): > 100 µM (inactive); GI50 (U-251): > 100 µM (inactive); GI50 (SK-MEL-5): > 100 µM (inactive); GI50 (HCT-15): > 100 µM; GI50 (HT-29): > 100 µM (inactive); GI50 (UO-31): > 100 µM (inactive); GI50 (A498): > 100 µM (inactive); GI50 (MOLT-4): > 100 µM (inactive); GI50 (SK-MEL-2): 63.5 µM (inactive); GI50 (EKVX): > 100 µM (inactive); GI50 (NCI-H23): > 100 µM (inactive); GI50 (UACC-62): > 100 µM (inactive); GI50 (LOX IMVI): > 100 µM (inactive); GI50 (KM12): > 100 µM (inactive); GI50 (SF-268): > 100 µM (inactive); GI50 (HL-60): > 100 µM (inactive); GI50 (NCI-H460): > 100 µM (inactive); GI50 (HOP-62): > 100 µM (inactive); GI50 (K562): > 100 µM (inactive)

Question: What does the source list for `O=C1CCCN1CCC/N=c1/cc2n(-c3ccc(Cl)cc3)c3ccccc3nc-2cc1Nc1ccc(Cl)cc1`?
Answer: GI50 (UACC-257): 11.9 µM (inactive); GI50 (HCT-116): 7.26 µM (inactive); GI50 (U-251): 22.1 µM (inactive); GI50 (SK-MEL-5): 13 µM (inactive); GI50 (HCT-15): 4.52 µM; GI50 (HT-29): 2.13 µM (inactive); GI50 (UO-31): 6.73 µM (inactive); GI50 (A498): 19.5 µM (inactive); GI50 (MOLT-4): 3.66 µM (inactive); GI50 (SK-MEL-2): 13.1 µM (inactive); GI50 (EKVX): 13.1 µM (inactive); GI50 (NCI-H23): 8.26 µM (inactive); GI50 (UACC-62): 11.5 µM (inactive); GI50 (LOX IMVI): 7.71 µM (inactive); GI50 (KM12): 13.4 µM (inactive); GI50 (SF-268): 38.5 µM (inactive); GI50 (HL-60): 3.47 µM (inactive); GI50 (NCI-H460): 7.06 µM (inactive); GI50 (HOP-62): 12.9 µM (inactive); GI50 (K562): 9.23 µM (inactive)

Question: How did the GI50 (UACC-257) turn out when `O=Cc1ccccc1CCn1c(=O)c2cc3c(=O)n(CCc4ccccc4C=O)c(=O)c3cc2c1=O` was run?
Answer: The GI50 was > 100 µM (inactive).

Question: And the GI50 (HCT-116)?
Answer: The GI50 was > 100 µM (inactive).

Question: And the GI50 (U-251)?
Answer: The GI50 was > 100 µM (inactive).

Question: And the GI50 (SK-MEL-5)?
Answer: The GI50 was > 100 µM (inactive).

Question: And the GI50 (HCT-15)?
Answer: The GI50 was greater than 100 µM.

Question: What about the GI50 (HT-29) of the same compound?
Answer: Its GI50 is > 100 µM (inactive).

Question: And the GI50 (UO-31)?
Answer: The GI50 was > 100 µM (inactive).

Question: What about the GI50 (A498) of the same compound?
Answer: The GI50 was > 100 µM (inactive).

Question: And the GI50 (MOLT-4)?
Answer: The GI50 was > 100 µM (inactive).

Question: What about the GI50 (SK-MEL-2) of the same compound?
Answer: The GI50 was > 100 µM (inactive).

Question: What about the GI50 (NCI-H23) of the same compound?
Answer: The GI50 was > 100 µM (inactive).

Question: And the GI50 (UACC-62)?
Answer: Its GI50 is > 100 µM (inactive).

Question: What about the GI50 (LOX IMVI) of the same compound?
Answer: The GI50 was > 100 µM (inactive).

Question: What about the GI50 (KM12) of the same compound?
Answer: Its GI50 is > 100 µM (inactive).

Question: And the GI50 (SF-268)?
Answer: Its GI50 is > 100 µM (inactive).

Question: And the GI50 (HL-60)?
Answer: Its GI50 is > 100 µM (inactive).

Question: And the GI50 (NCI-H460)?
Answer: Its GI50 is > 100 µM (inactive).

Question: And the GI50 (K562)?
Answer: The GI50 was > 100 µM (inactive).

Question: Which results are given for `Clc1nc(-[n+]2ccc(-c3ccncc3)cc2)nc(Nc2ccccc2)c1Cl`?
Answer: GI50 (UACC-257): > 100 µM (inactive); GI50 (HCT-116): > 100 µM (inactive); GI50 (U-251): 70.5 µM (inactive); GI50 (SK-MEL-5): > 100 µM (inactive); GI50 (HCT-15): > 100 µM; GI50 (HT-29): > 100 µM (inactive); GI50 (UO-31): > 100 µM (inactive); GI50 (A498): > 100 µM (inactive); GI50 (MOLT-4): 49.1 µM (inactive); GI50 (SK-MEL-2): > 100 µM (inactive); GI50 (EKVX): 83.8 µM (inactive); GI50 (NCI-H23): > 100 µM (inactive); GI50 (UACC-62): > 100 µM (inactive); GI50 (LOX IMVI): 50.4 µM (inactive); GI50 (KM12): > 100 µM (inactive); GI50 (SF-268): > 100 µM (inactive); GI50 (HL-60): 35.3 µM (inactive); GI50 (NCI-H460): > 100 µM (inactive); GI50 (HOP-62): > 100 µM (inactive); GI50 (K562): 52.1 µM (inactive)

Question: What does the source list for `COc1ccc(NC(C)=O)cc1N1C(=O)/C(=C\c2ccccc2)SC1c1cc(OC)c(OC)c(OC)c1` (stereo not drawn)?
Answer: GI50 (UACC-257): > 100 µM (inactive); GI50 (HCT-116): 14.4 µM (inactive); GI50 (U-251): 32.5 µM (inactive); GI50 (SK-MEL-5): 12 µM (inactive); GI50 (HCT-15): 21.7 µM; GI50 (HT-29): 32.4 µM (inactive); GI50 (UO-31): 33.7 µM (inactive); GI50 (A498): 60 µM (inactive); GI50 (MOLT-4): 25.6 µM (inactive); GI50 (SK-MEL-2): 31.8 µM (inactive); GI50 (EKVX): 27.2 µM (inactive); GI50 (NCI-H23): 36.5 µM (inactive); GI50 (UACC-62): 30.4 µM (inactive); GI50 (LOX IMVI): 14.9 µM (inactive); GI50 (KM12): 16.3 µM (inactive); GI50 (SF-268): 17.7 µM (inactive); GI50 (HL-60): 26.8 µM (inactive); GI50 (NCI-H460): 15.5 µM (inactive); GI50 (HOP-62): 39.2 µM (inactive); GI50 (K562): 33.7 µM (inactive)

Question: Which GI50 (UACC-257) does the source give for `CC(C)(C)c1ccc2c(c1)OP1(Oc3c(Cl)cc(Cl)c4cccnc34)(O2)Oc2ccc(C(C)(C)C)cc2O1` here?
Answer: The GI50 was 4.03 µM (inactive).

Question: And the GI50 (HCT-116)?
Answer: Its GI50 is 5.22 µM (inactive).

Question: And the GI50 (U-251)?
Answer: The GI50 was 4.63 µM (inactive).

Question: And the GI50 (SK-MEL-5)?
Answer: Its GI50 is 8.51 µM (inactive).

Question: What about the GI50 (HCT-15) of the same compound?
Answer: The GI50 was 4.53 µM.

Question: What about the GI50 (HT-29) of the same compound?
Answer: Its GI50 is 5.2 µM (inactive).

Question: What about the GI50 (UO-31) of the same compound?
Answer: Its GI50 is 5.08 µM (inactive).

Question: What about the GI50 (A498) of the same compound?
Answer: The GI50 was 14.1 µM (inactive).

Question: What about the GI50 (MOLT-4) of the same compound?
Answer: Its GI50 is 2.81 µM (inactive).

Question: What about the GI50 (SK-MEL-2) of the same compound?
Answer: The GI50 was 10.2 µM (inactive).

Question: And the GI50 (EKVX)?
Answer: The GI50 was 5.16 µM (inactive).

Question: And the GI50 (NCI-H23)?
Answer: Its GI50 is 6.38 µM (inactive).

Question: And the GI50 (UACC-62)?
Answer: Its GI50 is 5.37 µM (inactive).

Question: What about the GI50 (LOX IMVI) of the same compound?
Answer: Its GI50 is 5.55 µM (inactive).

Question: What about the GI50 (KM12) of the same compound?
Answer: Its GI50 is 6.87 µM (inactive).

Question: And the GI50 (SF-268)?
Answer: The GI50 was 7.16 µM (inactive).

Question: What about the GI50 (HL-60) of the same compound?
Answer: Its GI50 is 2.65 µM (inactive).

Question: And the GI50 (NCI-H460)?
Answer: The GI50 was 3.8 µM (inactive).

Question: What about the GI50 (HOP-62) of the same compound?
Answer: The GI50 was 5.01 µM (inactive).

Question: What about the GI50 (K562) of the same compound?
Answer: Its GI50 is 3.94 µM (inactive).
